The test system of one test is skin elastin. Briefly: 3H-elastin cleavage assay, skin elastin. It is filed as biochemical. The procedure:
(§1) FIG. 2: granzyme B degrades elastin in vitro. Granzyme B was incubated with ^3H-elastin for 7 days at room temperature. Elastase was incubated with ^3H-elastin for 2 hours. Supernatants containing the soluble elastin cleavage fragments were collected and counted. Data is represented as fold increase in radioactivity over the control (elastin only). (n=2)
(§2) Tritiated elastin was prepared with the modifications as described in Banda, M. J. and Werb, Z. (1981) Biochem J 193: 589-605 and Gordon, S., Werb, Z. and Cohn, Z. A. (1976) in In Vitro Methods in Cell Mediated and Tumor Immunity, eds. Bloom, B. R. and David, J. R. (Academic Press, New York), pages 349-350. 1 mg of skin or aortic elastin was diluted in 1 ml dH2O and pHed to 9.2. 1 mCi NaB3H4 (PerkinElmer, Waltham Mass.) and 2 mg of non-radioactive […] (Sigma, St. Louis, Mo.) was added. After 2 hours of incubation, the pH was adjusted to 3.0 and the elastin was incubated for an additional 30 minutes. The elastin was centrifuged for 3 minutes at 5000×g and the pellet was repeatedly washed to remove excess NaB3H4. […] The radioactivity of the soluble, cleaved elastin fragments in the supernatant was counted in Ready Safe Scintillation Fluid (Beckman-Coulter, Fullerton, Calif.). The radioactivity of the cleaved, soluble elastin fragments was 4.8 times and 2.7 times higher than background for skin and aortic elastin, respectively (FIG. 2).

Another test relates to aortic elastin. Briefly: 3H-elastin cleavage assay, aortic elastin. It is filed as biochemical. On the procedure:
as §1, §2

[1] abbreviates: 25 μg elastase, 2 hours, positive control.
[2] abbreviates: 0.15 mg 3H-elastin, granzyme B 0.75 μg added 5 times, room temperature, 7 days.

Results on two substances are retold here after patent publication US20120171144A1, “METHODS OF TREATING, REDUCING AND INHIBITING THE APPEARANCE OF AGEING IN THE SKIN” (priority 2006, published 2012).

With elastase, the “radioactivity increase over background” value in the test on skin elastin (setting [1]) worked out at 14.9 fold; with aortic elastin (setting [1]), 7.7 fold.

Take “granzyme B: serine protease that is capable of cleaving elastin and other extracellular proteins”: the “radioactivity of the cleaved, soluble elastin fragments, higher than background” value with skin elastin (setting [2]) came out at 4.8 times; in the test with aortic elastin (setting [2]), 2.7 times.
